From paper PMC4979471 (Cell Death Discovery, 2015)
Like-named read-outs stand apart in the source and are kept apart here.

Key:
Assay in all cases: Kinase selectivity, P33-radiolabeled assay
Assay type in all cases: biochemical
Conditions in all cases: 10 μM ATP
ZAP70 = biological target: T1, ZAP70 (Homo sapiens, UniProt P43403)
T1 construct: purchased Reaction Biology Corp
T1 sequence (P43403 1-619): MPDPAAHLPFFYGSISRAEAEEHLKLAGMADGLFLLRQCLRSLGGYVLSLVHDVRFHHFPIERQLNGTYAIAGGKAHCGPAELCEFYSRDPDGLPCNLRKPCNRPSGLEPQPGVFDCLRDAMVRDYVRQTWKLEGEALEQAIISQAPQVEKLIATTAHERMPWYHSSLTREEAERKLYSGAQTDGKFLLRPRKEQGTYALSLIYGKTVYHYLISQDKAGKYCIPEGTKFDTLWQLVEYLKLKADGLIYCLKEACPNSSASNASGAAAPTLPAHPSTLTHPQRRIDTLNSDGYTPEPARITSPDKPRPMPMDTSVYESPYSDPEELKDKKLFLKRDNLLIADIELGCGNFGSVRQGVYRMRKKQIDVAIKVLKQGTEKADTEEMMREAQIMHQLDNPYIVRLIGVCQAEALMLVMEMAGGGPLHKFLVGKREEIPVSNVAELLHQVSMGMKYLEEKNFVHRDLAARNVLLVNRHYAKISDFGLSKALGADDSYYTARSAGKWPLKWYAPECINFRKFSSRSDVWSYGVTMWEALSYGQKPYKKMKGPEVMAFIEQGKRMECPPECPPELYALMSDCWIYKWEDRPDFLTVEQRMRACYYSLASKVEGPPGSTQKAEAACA
Description: (§1) The compound was tested at a single dose in duplicate at 10 μM. Reactions were carried out at 10 μM ATP. Data are reported as % enzyme activity (relative to DMSO controls). The full data set is shown in the Supplementary Table I.

FYN = biological target: T2, FYN (Homo sapiens, UniProt P06241)
T2 construct: purchased Reaction Biology Corp
Description: as §1

MELK = biological target: T3, MELK (Homo sapiens, UniProt Q14680)
T3 construct: purchased Reaction Biology Corp
Description: as §1

SNARK/NUAK2 = biological target: T4, SNARK/NUAK2 (Homo sapiens, UniProt Q9H093)
T4 construct: purchased Reaction Biology Corp
T4 sequence (Q9H093 1-628): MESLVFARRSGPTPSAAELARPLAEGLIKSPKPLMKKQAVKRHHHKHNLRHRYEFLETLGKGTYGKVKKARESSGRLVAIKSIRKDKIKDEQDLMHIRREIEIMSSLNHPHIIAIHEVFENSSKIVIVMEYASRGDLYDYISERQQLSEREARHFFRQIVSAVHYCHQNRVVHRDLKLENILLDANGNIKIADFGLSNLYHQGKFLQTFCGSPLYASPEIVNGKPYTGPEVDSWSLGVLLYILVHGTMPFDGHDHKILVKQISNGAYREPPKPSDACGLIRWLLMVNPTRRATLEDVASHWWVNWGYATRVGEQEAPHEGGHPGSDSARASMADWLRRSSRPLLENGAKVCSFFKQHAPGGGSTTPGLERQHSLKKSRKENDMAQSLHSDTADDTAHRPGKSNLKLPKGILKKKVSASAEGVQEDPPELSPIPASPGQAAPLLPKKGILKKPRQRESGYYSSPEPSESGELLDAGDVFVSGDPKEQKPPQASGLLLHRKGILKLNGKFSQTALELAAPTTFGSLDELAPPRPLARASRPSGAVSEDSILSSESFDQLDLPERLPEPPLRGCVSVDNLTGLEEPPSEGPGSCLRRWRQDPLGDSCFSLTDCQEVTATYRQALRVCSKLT
Description: as §1

CDK1/cyclin B = biological target: T5, CDK1/cyclin B (Homo sapiens, UniProt P06493)
T5 construct: purchased Reaction Biology Corp
Description: as §1

ALK6/BMPR1B = biological target: T6, ALK6/BMPR1B (Homo sapiens, UniProt O00238)
T6 construct: purchased Reaction Biology Corp
Description: as §1

c-Src = biological target: T7, c-Src (Homo sapiens, UniProt P12931)
T7 construct: purchased Reaction Biology Corp
Description: as §1

GRK1 = biological target: T8, GRK1 (Homo sapiens, UniProt Q15835)
T8 construct: purchased Reaction Biology Corp
T8 sequence (Q15835 1-563): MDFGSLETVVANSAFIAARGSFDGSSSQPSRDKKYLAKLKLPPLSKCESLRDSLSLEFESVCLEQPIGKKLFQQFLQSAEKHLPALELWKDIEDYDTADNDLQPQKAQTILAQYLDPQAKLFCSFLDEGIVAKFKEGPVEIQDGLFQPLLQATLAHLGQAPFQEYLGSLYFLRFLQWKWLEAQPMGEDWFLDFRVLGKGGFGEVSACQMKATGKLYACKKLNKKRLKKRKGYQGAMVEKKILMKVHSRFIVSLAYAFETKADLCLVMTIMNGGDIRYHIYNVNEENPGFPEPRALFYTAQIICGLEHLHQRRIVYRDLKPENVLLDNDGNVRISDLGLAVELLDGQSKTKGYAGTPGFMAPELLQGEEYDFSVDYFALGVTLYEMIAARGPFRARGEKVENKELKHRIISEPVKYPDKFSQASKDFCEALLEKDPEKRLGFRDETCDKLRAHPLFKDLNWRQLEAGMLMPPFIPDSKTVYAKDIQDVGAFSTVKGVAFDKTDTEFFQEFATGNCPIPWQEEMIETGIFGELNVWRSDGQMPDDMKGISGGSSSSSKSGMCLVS
Description: as §1

CLK4 = biological target: T9, CLK4 (Homo sapiens, UniProt Q9HAZ1)
T9 construct: purchased Reaction Biology Corp
Description: as §1

CDK9/cyclin T1 = biological target: T10, CDK9/cyclin T1 (Homo sapiens, UniProt P50750)
T10 construct: purchased Reaction Biology Corp
Description: as §1

[1] = read-out: % Enzyme Activity (relative to DMSO controls) AVG
[2] = read-out: % Enzyme Activity (relative to DMSO controls) Data 1
[3] = read-out: % Enzyme Activity (relative to DMSO controls) Data 2

T10 sequence (P50750 whole entry): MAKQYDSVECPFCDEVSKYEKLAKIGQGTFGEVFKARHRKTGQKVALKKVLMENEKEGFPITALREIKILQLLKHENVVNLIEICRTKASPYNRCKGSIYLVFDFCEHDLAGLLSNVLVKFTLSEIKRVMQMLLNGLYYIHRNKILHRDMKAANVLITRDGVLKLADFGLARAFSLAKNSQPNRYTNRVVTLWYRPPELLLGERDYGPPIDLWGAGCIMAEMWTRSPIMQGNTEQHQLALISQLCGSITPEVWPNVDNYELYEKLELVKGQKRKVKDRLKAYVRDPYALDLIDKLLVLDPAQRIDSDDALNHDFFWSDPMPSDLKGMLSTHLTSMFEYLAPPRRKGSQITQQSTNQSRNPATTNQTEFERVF
T10 sequence (O60563 whole entry partner): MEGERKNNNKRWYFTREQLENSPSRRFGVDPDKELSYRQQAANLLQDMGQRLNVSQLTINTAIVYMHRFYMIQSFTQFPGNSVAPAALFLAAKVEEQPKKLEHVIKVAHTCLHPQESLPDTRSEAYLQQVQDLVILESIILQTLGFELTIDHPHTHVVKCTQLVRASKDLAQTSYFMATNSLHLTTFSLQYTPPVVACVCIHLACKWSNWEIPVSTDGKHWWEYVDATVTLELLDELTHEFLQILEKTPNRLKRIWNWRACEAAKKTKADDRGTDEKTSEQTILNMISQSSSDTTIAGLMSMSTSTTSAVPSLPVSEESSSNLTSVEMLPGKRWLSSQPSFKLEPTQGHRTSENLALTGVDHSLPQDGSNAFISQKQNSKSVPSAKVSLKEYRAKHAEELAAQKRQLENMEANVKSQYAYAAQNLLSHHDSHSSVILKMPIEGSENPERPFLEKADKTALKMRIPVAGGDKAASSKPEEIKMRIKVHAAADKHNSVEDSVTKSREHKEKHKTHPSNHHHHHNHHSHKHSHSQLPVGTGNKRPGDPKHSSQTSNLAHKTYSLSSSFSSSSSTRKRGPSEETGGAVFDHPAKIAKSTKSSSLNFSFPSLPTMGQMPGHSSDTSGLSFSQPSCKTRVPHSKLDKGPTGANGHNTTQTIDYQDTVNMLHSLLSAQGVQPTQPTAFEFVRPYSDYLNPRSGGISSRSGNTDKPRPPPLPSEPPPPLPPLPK
T6 sequence (O00238 14-502): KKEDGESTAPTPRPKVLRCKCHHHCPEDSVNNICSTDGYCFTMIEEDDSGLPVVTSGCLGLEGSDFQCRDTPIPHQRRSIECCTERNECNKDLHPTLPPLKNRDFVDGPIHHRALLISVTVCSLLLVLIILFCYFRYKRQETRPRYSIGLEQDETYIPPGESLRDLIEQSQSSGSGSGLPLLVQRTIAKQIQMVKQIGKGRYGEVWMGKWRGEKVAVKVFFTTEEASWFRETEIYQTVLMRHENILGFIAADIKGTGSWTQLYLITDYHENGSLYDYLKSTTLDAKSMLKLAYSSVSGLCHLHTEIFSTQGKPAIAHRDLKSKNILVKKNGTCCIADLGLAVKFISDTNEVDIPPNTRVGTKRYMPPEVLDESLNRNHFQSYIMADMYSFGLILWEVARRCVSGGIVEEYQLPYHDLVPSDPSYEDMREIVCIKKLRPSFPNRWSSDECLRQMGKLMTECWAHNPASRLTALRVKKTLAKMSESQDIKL
T7 sequence (P12931 whole entry): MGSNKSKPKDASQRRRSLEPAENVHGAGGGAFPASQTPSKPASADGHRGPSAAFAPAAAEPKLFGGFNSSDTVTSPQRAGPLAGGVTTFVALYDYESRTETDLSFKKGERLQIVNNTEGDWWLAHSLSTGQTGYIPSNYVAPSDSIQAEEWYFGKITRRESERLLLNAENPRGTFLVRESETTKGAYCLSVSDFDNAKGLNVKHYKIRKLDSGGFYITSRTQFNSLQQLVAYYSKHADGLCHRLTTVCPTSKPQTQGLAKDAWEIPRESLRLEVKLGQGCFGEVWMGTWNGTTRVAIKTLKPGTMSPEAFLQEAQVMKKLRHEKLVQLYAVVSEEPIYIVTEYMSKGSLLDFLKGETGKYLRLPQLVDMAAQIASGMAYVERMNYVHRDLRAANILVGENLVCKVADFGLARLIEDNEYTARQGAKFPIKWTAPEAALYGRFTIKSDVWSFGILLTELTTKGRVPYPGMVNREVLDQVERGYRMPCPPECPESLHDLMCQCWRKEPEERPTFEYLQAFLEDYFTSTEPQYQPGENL
T2 sequence (P06241 whole entry): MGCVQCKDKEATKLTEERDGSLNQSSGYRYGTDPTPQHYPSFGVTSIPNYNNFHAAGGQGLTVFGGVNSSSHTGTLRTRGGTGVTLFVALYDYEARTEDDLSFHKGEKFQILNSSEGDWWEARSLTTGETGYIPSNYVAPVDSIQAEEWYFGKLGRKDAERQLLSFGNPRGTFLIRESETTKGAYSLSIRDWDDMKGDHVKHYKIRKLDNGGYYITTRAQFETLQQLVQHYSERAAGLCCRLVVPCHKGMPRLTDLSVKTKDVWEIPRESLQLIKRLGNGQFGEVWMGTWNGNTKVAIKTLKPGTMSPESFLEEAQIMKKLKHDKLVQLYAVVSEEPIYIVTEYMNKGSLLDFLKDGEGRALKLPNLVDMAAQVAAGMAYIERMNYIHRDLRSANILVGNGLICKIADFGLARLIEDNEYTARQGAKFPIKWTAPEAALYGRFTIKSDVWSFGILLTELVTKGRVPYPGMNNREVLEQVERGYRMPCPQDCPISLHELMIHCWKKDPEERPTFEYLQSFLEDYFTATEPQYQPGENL
T3 sequence (Q14680 whole entry): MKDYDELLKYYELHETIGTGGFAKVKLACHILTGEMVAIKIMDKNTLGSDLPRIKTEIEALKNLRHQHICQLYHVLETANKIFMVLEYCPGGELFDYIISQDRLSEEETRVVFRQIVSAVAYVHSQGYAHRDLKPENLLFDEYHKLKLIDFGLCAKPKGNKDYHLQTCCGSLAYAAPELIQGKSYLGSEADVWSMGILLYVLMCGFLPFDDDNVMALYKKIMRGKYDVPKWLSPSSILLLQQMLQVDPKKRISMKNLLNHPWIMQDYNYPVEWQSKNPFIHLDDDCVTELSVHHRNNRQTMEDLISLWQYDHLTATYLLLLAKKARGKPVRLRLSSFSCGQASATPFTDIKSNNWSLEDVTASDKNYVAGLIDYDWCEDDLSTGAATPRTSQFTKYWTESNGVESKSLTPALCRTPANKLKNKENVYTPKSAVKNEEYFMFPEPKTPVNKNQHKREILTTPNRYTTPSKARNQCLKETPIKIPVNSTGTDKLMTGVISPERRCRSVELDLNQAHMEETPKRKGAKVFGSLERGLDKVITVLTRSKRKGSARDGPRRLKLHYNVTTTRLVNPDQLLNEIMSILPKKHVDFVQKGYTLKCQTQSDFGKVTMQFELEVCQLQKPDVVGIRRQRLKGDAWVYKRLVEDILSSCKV
T9 sequence (Q9HAZ1 whole entry): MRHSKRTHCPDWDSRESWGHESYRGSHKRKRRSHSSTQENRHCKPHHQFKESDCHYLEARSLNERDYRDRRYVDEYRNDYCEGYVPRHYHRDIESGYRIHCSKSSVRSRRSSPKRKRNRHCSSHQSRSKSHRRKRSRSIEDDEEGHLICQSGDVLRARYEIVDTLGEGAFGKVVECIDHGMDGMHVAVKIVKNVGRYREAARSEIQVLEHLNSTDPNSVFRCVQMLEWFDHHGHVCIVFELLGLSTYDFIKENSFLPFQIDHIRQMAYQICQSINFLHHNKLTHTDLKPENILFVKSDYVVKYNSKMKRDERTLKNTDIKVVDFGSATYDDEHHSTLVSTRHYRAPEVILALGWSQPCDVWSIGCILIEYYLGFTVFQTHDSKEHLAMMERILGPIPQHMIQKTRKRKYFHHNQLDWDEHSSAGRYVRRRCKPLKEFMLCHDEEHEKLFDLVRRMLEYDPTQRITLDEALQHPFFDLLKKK
T5 sequence (P06493 whole entry): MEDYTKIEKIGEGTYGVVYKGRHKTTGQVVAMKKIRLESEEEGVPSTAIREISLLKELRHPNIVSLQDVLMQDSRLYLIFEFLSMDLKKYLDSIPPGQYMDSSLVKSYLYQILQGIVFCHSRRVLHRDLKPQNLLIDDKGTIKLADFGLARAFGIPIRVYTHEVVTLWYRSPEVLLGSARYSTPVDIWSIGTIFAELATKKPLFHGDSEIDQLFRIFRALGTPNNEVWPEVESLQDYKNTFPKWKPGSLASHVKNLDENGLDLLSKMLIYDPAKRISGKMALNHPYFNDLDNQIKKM
T5 sequence (P14635 whole entry partner): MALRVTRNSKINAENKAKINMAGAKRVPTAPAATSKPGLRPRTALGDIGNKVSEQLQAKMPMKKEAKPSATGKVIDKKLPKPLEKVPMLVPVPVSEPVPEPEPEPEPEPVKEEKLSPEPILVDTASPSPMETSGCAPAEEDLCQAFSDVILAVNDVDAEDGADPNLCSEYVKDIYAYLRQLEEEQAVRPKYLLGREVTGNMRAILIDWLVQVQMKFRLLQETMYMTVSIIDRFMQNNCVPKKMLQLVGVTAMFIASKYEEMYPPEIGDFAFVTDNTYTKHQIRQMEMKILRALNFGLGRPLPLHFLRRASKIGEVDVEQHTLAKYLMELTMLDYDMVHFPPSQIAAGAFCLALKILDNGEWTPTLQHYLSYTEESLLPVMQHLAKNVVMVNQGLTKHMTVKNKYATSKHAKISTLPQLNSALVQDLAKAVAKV

CC(C)(C)C(=O)N1N=CC[C@H]1c1ccccc1 [GSK′963] was tested, and the remaining activity at 10 µM (ZAP70; [1]) was 111%, the remaining activity at 10 µM (ZAP70; [2]) was 111% and the remaining activity at 10 µM (ZAP70; [3]) was 111%. It also gave a remaining activity at 10 µM (FYN; [1]) of 106%, a remaining activity at 10 µM (FYN; [2]) of 104% and a remaining activity at 10 µM (FYN; [3]) of 107%. It also gave a remaining activity at 10 µM (MELK; [1]) of 104%, a remaining activity at 10 µM (MELK; [2]) of 105% and a remaining activity at 10 µM (MELK; [3]) of 103%. It also gave a remaining activity at 10 µM (SNARK/NUAK2; [1]) of 99.1%, a remaining activity at 10 µM (SNARK/NUAK2; [2]) of 99.2% and a remaining activity at 10 µM (SNARK/NUAK2; [3]) of 99%. It also gave a remaining activity at 10 µM (CDK1/cyclin B; [1]) of 88.6%, a remaining activity at 10 µM (CDK1/cyclin B; [2]) of 84% and a remaining activity at 10 µM (CDK1/cyclin B; [3]) of 93.2%. For the same compound, the remaining activity at 10 µM (ALK6/BMPR1B; [1]) was 90.5%, the remaining activity at 10 µM (ALK6/BMPR1B; [2]) was 91% and the remaining activity at 10 µM (ALK6/BMPR1B; [3]) was 90%. The remaining activity at 10 µM (c-Src; [1]) was 109%, the remaining activity at 10 µM (c-Src; [2]) was 112% and the remaining activity at 10 µM (c-Src; [3]) was 106%. It also gave a remaining activity at 10 µM (GRK1; [1]) of 108%, a remaining activity at 10 µM (GRK1; [2]) of 109% and a remaining activity at 10 µM (GRK1; [3]) of 106%. It also gave a remaining activity at 10 µM (CLK4; [1]) of 100%, a remaining activity at 10 µM (CLK4; [2]) of 101% and a remaining activity at 10 µM (CLK4; [3]) of 99.8%. The remaining activity at 10 µM (CDK9/cyclin T1; [1]) was 108%, the remaining activity at 10 µM (CDK9/cyclin T1; [2]) was 112% and the remaining activity at 10 µM (CDK9/cyclin T1; [3]) was 105%.
